For this assay, the target named is T1, RING1B-BMI1 (Homo sapiens, UniProt Q99496).
T1 sequence (Q99496 1-336): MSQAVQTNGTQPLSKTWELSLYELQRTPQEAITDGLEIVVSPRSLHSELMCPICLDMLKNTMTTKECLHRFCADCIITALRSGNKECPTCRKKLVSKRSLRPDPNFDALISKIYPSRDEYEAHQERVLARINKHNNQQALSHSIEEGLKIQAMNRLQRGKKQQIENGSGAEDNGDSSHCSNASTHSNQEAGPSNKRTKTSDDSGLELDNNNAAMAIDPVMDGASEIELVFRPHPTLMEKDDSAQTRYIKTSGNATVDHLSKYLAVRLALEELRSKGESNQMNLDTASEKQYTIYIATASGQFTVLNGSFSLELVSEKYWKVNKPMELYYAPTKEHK
T1 sequence (P35226 1-326 partner): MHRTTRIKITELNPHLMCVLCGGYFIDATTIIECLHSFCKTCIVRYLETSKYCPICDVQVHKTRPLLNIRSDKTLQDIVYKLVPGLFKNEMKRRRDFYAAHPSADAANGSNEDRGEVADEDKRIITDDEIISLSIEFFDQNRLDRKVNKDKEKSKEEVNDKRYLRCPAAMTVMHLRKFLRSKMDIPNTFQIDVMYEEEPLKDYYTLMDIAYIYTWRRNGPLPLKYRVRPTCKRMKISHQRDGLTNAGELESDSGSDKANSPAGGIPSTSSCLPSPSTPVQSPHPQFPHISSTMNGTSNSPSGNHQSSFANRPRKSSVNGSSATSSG
Briefly: KD classes of Table A (direct binding to Ring1B-Bmi1). Conditions: class given in Table A. The method, then:
Experiments were conducted during development of embodiments herein to develop small molecule inhibitors of PRC1 by targeting the Ring1B-BMI1 E3 ligase. These compounds bind directly to Ring1B-Bmi1 with low-micromolar affinity and inhibit PRC1 in vitro and in cells. […] Experiments were conducted during development of embodiments herein to test COMPOUND 1 in leukemia stem cell models represented by TEX cells (Ref. 22; herein incorporated by reference in its entirety) and M9-ENL1 cells (Ref. 23; herein incorporated by reference in its entirety). […] In some embodiments, COMPOUND 1 and COMPOUND 1 analogs are find use as agents in targeting leukemia and other cancer stem cells.
The compounds listed in Table A have been synthesized and/or tested for activity in inhibiting activity of PRC1 complex, and are within the scope herein.

For orientation: Kd means the constant that tells how readily two partners part at equilibrium. Low readings indicate higher affinity, high ones lower affinity.

`CC(C)c1c(-c2cccc3[nH]c(C(=O)O)cc23)[nH]c(C(=O)O)c1-c1c(Cl)ccc2[nH]ccc12` [compound 49] gave a Kd of under 20 µM.

`COc1cc(-c2c(C(=O)O)[nH]c(-c3cc(F)cc4[nH]ccc34)c2C(C)C)c2cc(C(=O)O)[nH]c2c1` [compound 50] had a Kd of under 20 µM.

In the case of `Cc1cc(-c2c(C(=O)O)[nH]c(-c3cc(F)cc4[nH]ccc34)c2C(C)C)c2cc[nH]c2c1` [compound 51], the dissociation constant Kd was under 20 µM.

On to `CC(C)c1c(-c2cccc3[nH]c(CO)cc23)[nH]c(C(=O)O)c1-c1c(Cl)ccc2[nH]ccc12` [compound 52], for which the Kd was under 20 µM.

Take `CC(C)c1c(-c2cc(F)cc3[nH]ccc23)[nH]c(C(=O)O)c1-c1c(Cl)ccc2[nH]c(C(=O)O)cc12` [compound 53]: the Kd is under 20 µM.

Compound `CC(C)c1c(-c2cc(F)cc3[nH]ccc23)[nH]c(C(=O)O)c1-c1cc(C(F)(F)F)cc2c1ccn2CC(=O)O` [compound 54] gave a Kd of under 20 µM.

Consider `CC(C)c1cc(-c2c(C(=O)O)[nH]c(-c3cc(F)cc4[nH]ccc34)c2C(C)C)c2ccn(CC(=O)O)c2c1` [compound 55], for which the Kd was under 20 µM.

Consider `COc1ccc(-c2c(C(=O)O)[nH]c(-c3cc(F)cc4[nH]ccc34)c2C(C)C)c(Cl)c1` [compound 56], for which the Kd is under 20 µM.

With `COc1cccc(-c2c(C(=O)O)[nH]c(-c3cc(F)cc4[nH]ccc34)c2C(C)C)c1Cl` [compound 57, 3-(2-chloro-3-methoxyphenyl)-5-(6-fluoro-1H-indol-4-yl)-4-isopropyl-1H-pyrrole-2-carboxylic acid], the Kd is under 20 µM.

For `COc1ccc(-c2c(C(=O)O)[nH]c(-c3cc(F)cc4[nH]ccc34)c2C(C)C)c(F)c1` [compound 58], the Kd is under 20 µM.

Compound `COc1ccc(-c2c(C(=O)O)[nH]c(-c3cc(F)cc4[nH]ccc34)c2C(C)C)c(C)c1` [compound 59] yielded a dissociation constant Kd of under 20 µM.

On to `CC(C)c1c(-c2cc(F)cc3[nH]ccc23)[nH]c(C(=O)O)c1-c1cc(OCC(=O)O)ccc1Cl` [compound 60], for which the Kd was under 20 µM.

The compound `CC(C)c1c(-c2cc(F)cc3[nH]ccc23)[nH]c(C(=O)O)c1-c1ccc2c(c1)OCCO2` [compound 61] had a Kd of under 20 µM.

Take `CC(C)c1c(-c2cc(F)cc3[nH]ccc23)[nH]c(C(=O)O)c1-c1ccc(Oc2nccs2)cc1` [compound 62]: the Kd is under 20 µM.

Compound `CC(C)c1c(-c2cc(F)cc3[nH]ccc23)[nH]c(C(=O)O)c1-c1ccc(Oc2ccncc2)cc1` [compound 63] displayed a Kd of under 20 µM.

Compound `CC(C)c1c(-c2cc(F)cc3[nH]ccc23)[nH]c(C(=O)O)c1-c1cccc(Oc2nccs2)c1` [compound 64] displayed a Kd of under 20 µM.

Turning to `CCc1c(-c2cccc3[nH]ccc23)[nH]c(C(=O)O)c1-c1ccccc1Cl` [compound 65], the Kd was under 20 µM.

With `C#CCCCCC(=O)NCCn1ccc2c(-c3c(C(=O)O)[nH]c(-c4cc(F)cc5[nH]ccc45)c3C(C)C)cccc21` [compound 66], the Kd was under 20 µM.

As to `C#CCCCCC(=O)NCCc1c[nH]c2cc(F)cc(-c3[nH]c(C(=O)O)c(-c4c(Cl)ccc5[nH]ccc45)c3C(C)C)c12` [compound 67], the Kd was under 20 µM.

With `C#CCCCCC(=O)NCCCCCC(=O)NCCc1c[nH]c2cc(F)cc(-c3[nH]c(C(=O)O)c(-c4c(Cl)ccc5[nH]ccc45)c3C(C)C)c12` [compound 68], the Kd is under 20 µM.

`C#CCOCCOCCOCCC(=O)NCCc1c[nH]c2cc(F)cc(-c3[nH]c(C(=O)O)c(-c4c(Cl)ccc5[nH]ccc45)c3C(C)C)c12` [compound 69] showed a dissociation constant Kd of under 20 µM.

Take `CC(C)c1c(-c2cc(F)cc3[nH]cc(CCNC(=O)CCCCCNC(=O)c4ccc5c(c4)C(=O)OC54c5ccc(O)cc5Oc5cc(O)ccc54)c23)[nH]c(C(=O)O)c1-c1c(Cl)ccc2[nH]ccc12` [compound 70]: the Kd was under 20 µM.

`CCn1c(C(=O)O)c(-c2cc(OC)cc3[nH]ccc23)c(C(C)C)c1-c1cc(F)cc2[nH]ccc12` [compound 71] gave a Kd of under 20 µM.

Compound `COCCC(=O)NCCc1c[nH]c2cc(F)cc(-c3[nH]c(C(=O)O)c(-c4c(Cl)ccc5[nH]ccc45)c3C(C)C)c12` [compound 72] came in with a Kd of under 20 µM.

Compound `CCC(C)c1c(-c2cccc3[nH]ccc23)[nH]c(C(=O)O)c1-c1cccc2[nH]ccc12` (stereo not drawn) [compound 73] gave a Kd of under 20 µM.

For the compound `CC(C)c1c(-c2cc(F)cc3[nH]ccc23)[nH]c(C(=O)O)c1-c1ccnc2[nH]ccc12` [compound 74], the Kd is under 20 µM.

In the case of `CC(C)c1c(-c2ccnc3[nH]ccc23)[nH]c(C(=O)O)c1-c1c(Cl)ccc2[nH]ccc12` [compound 75], the Kd was under 20 µM.

Consider `CC(C)c1c(-c2cccc3[nH]ccc23)cn(CC(=O)O)c1-c1cccc2[nH]ccc12` [compound 76], for which the equilibrium dissociation constant (Kd) was under 20 µM.

Take `CCc1c(-c2cccc3[nH]ccc23)[nH]c(C(=O)O)c1-c1cccc2c1ccn2CCO` [compound 77]: the Kd lay in the range of 20 to 50 µM.

The compound `CCc1c(-c2cccc3[nH]ccc23)[nH]c(C(=O)O)c1CC1CCCCC1` [compound 78] displayed a Kd of 20 to 50 µM.

The compound `CCc1c(-c2cccc3[nH]ccc23)[nH]c(C(=O)O)c1Cc1ccccc1` [compound 79] displayed a Kd of 20 to 50 µM.

`CCc1c(-c2cccc3[nH]ccc23)[nH]c(C(=O)O)c1-c1cc(N)ccc1Cl` [compound 80] came in with a Kd of 20 to 50 µM.

With `CCc1c(-c2cccc3[nH]ccc23)[nH]c(C(=O)O)c1-c1cc([N+](=O)[O-])ccc1Cl` [compound 81], the Kd is 20 to 50 µM.

`CCc1c(-c2cccc3[nH]ccc23)[nH]c(C(=O)O)c1-c1ccccc1C(F)(F)F` [compound 82] yielded a Kd of 20 to 50 µM.

Compound `CCc1c(-c2cccc3[nH]ccc23)[nH]c(C(=O)O)c1-c1ccccc1C` [compound 83] had a Kd of 20 to 50 µM.

Compound `CCc1c(-c2cccc3[nH]ccc23)[nH]c(C(=O)O)c1-c1cccc(Cl)c1Cl` [compound 84] displayed a Kd of 20 to 50 µM.

`CCc1c(-c2cccc3[nH]ccc23)[nH]c(C(=O)O)c1-c1cccc(OC)c1` [compound 85] had a Kd of 20 to 50 µM.

The compound `CCc1c(-c2cccc3[nH]ccc23)[nH]c(C(=O)O)c1-c1cccc(F)c1` [compound 86] came in with a dissociation constant Kd of 20 to 50 µM.

For the compound `CCc1c(-c2cccc3[nH]ccc23)[nH]c(C(=O)O)c1-c1ccc(OC)cc1` [compound 87], the dissociation constant Kd is 20 to 50 µM.

The compound `CCc1c(-c2cccc3c2ccn3C)[nH]c(C(=O)O)c1-c1ccccc1Cl` [compound 88] yielded a Kd of 20 to 50 µM.

In turn, `CCc1c(-c2cccc3[nH]ccc23)[nH]c(C(=O)O)c1-c1ccccc1` [compound 89] displayed a Kd of 20 to 50 µM.

`CCc1c(-c2cccc3[nH]ccc23)[nH]c(C(=O)O)c1CCc1ccccc1` [compound 90] registered a Kd of 50 to 100 µM.

As to `CCc1c(-c2cccc3[nH]ncc23)[nH]c(C(=O)O)c1-c1ccc(OC)cc1Cl` [compound 91], the Kd lay within 50 to 100 µM.

`CCc1c(-c2cccc3[nH]ccc23)[nH]c(C(=O)O)c1-c1ccc(O)cc1Cl` [compound 92] came in with a Kd of 50 to 100 µM.

The compound `Cc1c(-c2cccc3[nH]ccc23)[nH]c(C(=O)O)c1-c1ccccc1Cl` [compound 93] gave a Kd of 50 to 100 µM.

`CCc1c(-c2cccc3[nH]ccc23)[nH]c(C(=O)O)c1-c1cnccc1Cl` [compound 94] returned a Kd of 50 to 100 µM.

In turn, `CCCc1c(-c2cccc3[nH]ccc23)[nH]c(C(=O)O)c1-c1ccccc1Cl` [compound 95] came in with an equilibrium dissociation constant (Kd) of 50 to 100 µM.

Compound `CCc1c(-c2cccc3[nH]ccc23)[nH]c(C(=O)O)c1-c1ccccc1-c1ccccc1` [compound 96] had a Kd of 50 to 100 µM.

Turning to `CCc1c(-c2cccc3[nH]ccc23)[nH]c(C(=O)O)c1-c1cccc(Oc2ccccc2)c1` [compound 97], the Kd is 50 to 100 µM.

Compound `CCc1c(-c2cccc3[nH]ccc23)[nH]c(C(=O)O)c1-c1cccc(C)c1` [compound 99] displayed a Kd of 50 to 100 µM.

As to `CCc1c(-c2cccc3[nH]ccc23)[nH]c(C(=O)O)c1-c1ccc(C)cc1` [compound 100], the Kd fell in the range of 50 to 100 µM.

Take `CCc1c(-c2cccc3c2ccn3C)[nH]c(C(=O)O)c1-c1ccccc1` [compound 101]: the Kd fell in the range of 50 to 100 µM.

`CCc1c(-c2cccc3[nH]ccc23)[nH]c(C(=O)O)c1C1CCCCC1` [compound 102] returned a dissociation constant Kd of over 100 µM.

Regarding `CCc1c(-c2c(OC)cccc2OC)[nH]c(C(=O)O)c1-c1ccc(OC)cc1Cl` [compound 104], the Kd was over 100 µM.

In turn, `CCc1c(-c2cccc3[nH]ccc23)[nH]c(C(=O)O)c1-c1ccc(N)cc1` [compound 105] returned a Kd of over 100 µM.

Compound `CCc1c(-c2cccc3[nH]ccc23)[nH]c(C(=O)O)c1-c1ccc(-c2ccccc2)cc1` [compound 106] returned a Kd of over 100 µM.

As for `CCc1c(-c2ccccc2O)[nH]c(C(=O)O)c1-c1ccccc1Cl` [compound 107], the Kd was over 100 µM.
